# Measured values: the supplement of paper PMC10307832
# Key:
# Experiment in all cases: relative viability (nuclei count vs DMSO), 5 days (fraction); higher = more cells survive
# Tipifarnib + Vorinostat = compound: Cn1cncc1[C@@](N)(c1ccc(Cl)cc1)c1ccc2c(c1)c(-c1cccc(Cl)c1)cc(=O)n2C [Tipifarnib] + O=C(CCCCCCC(=O)Nc1ccccc1)NO [Vorinostat] (partner 1 µM)
# How it was run: (§1)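 Nuclei were stained with Hoechst during a one-step fixation (final 0.05% Triton X-100, 1% formaldehyde, 1 ug/ml Hoechst) carried out 5 days after dosing, then counted on 4× images. The cells, lung cancer lines in 1536-well plates, had been dosed by pin tool the day after seeding with one drug alone or a fixed anchor-drug dose plus five library-drug doses (not always all listed) in √10 steps. Relative viability is the nuclei count in treated wells divided by that in vehicle wells, and each value is the median of duplicate plates.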
# Tipifarnib + Alpelisib = compound: Cn1cncc1[C@@](N)(c1ccc(Cl)cc1)c1ccc2c(c1)c(-c1cccc(Cl)c1)cc(=O)n2C [Tipifarnib] + Cc1nc(NC(=O)N2CCC[C@H]2C(N)=O)sc1-c1ccnc(C(C)(C)C(F)(F)F)c1 [Alpelisib] (partner 2 µM)
# How it was run: as §1
# Tipifarnib + Navitoclax = compound: Cn1cncc1[C@@](N)(c1ccc(Cl)cc1)c1ccc2c(c1)c(-c1cccc(Cl)c1)cc(=O)n2C [Tipifarnib] + CC1(C)CCC(c2ccc(Cl)cc2)=C(CN2CCN(c3ccc(C(=O)NS(=O)(=O)c4ccc(N[C@H](CCN5CCOCC5)CSc5ccccc5)c(S(=O)(=O)C(F)(F)F)c4)cc3)CC2)C1 [Navitoclax] (partner 0.5 µM)
# How it was run: as §1
# Tipifarnib + Linsitinib = compound: Cn1cncc1[C@@](N)(c1ccc(Cl)cc1)c1ccc2c(c1)c(-c1cccc(Cl)c1)cc(=O)n2C [Tipifarnib] + C[C@]1(O)C[C@@H](c2nc(-c3ccc4ccc(-c5ccccc5)nc4c3)c3c(N)nccn32)C1 [Linsitinib] (partner 1 µM)
# How it was run: as §1
cell line,measurement,setting,value
NCI-H596,relative viability,Tipifarnib + Vorinostat; first compound 0.01 µM,1.11
same,relative viability,Tipifarnib + Vorinostat; first compound 0.03162 µM,0.462
same,relative viability,Tipifarnib + Vorinostat; first compound 0.1 µM,0.467
same,relative viability,Tipifarnib + Vorinostat; first compound 0.3162 µM,0.456
same,relative viability,Tipifarnib + Vorinostat; first compound 1 µM,0.434
same,relative viability,Tipifarnib + Alpelisib; first compound 0.01 µM,0.516
same,relative viability,Tipifarnib + Alpelisib; first compound 0.03162 µM,0.547
same,relative viability,Tipifarnib + Alpelisib; first compound 0.1 µM,0.0161
same,relative viability,Tipifarnib + Alpelisib; first compound 0.3162 µM,0.436
same,relative viability,Tipifarnib + Alpelisib; first compound 1 µM,0.356
same,relative viability,Tipifarnib + Navitoclax; first compound 0.01 µM,1.05
same,relative viability,Tipifarnib + Navitoclax; first compound 0.03162 µM,0.78
same,relative viability,Tipifarnib + Navitoclax; first compound 0.1 µM,0.72
same,relative viability,Tipifarnib + Navitoclax; first compound 0.3162 µM,0.739
same,relative viability,Tipifarnib + Navitoclax; first compound 1 µM,0.64
same,relative viability,Tipifarnib + Linsitinib; first compound 0.01 µM,1
same,relative viability,Tipifarnib + Linsitinib; first compound 0.03162 µM,1.03
same,relative viability,Tipifarnib + Linsitinib; first compound 0.1 µM,0.854
same,relative viability,Tipifarnib + Linsitinib; first compound 0.3162 µM,0.934
same,relative viability,Tipifarnib + Linsitinib; first compound 1 µM,0.844
NCI-H1793,relative viability,Tipifarnib + Vorinostat; first compound 0.01 µM,0.635
same,relative viability,Tipifarnib + Vorinostat; first compound 0.03162 µM,0.643
same,relative viability,Tipifarnib + Vorinostat; first compound 0.1 µM,0.737
same,relative viability,Tipifarnib + Vorinostat; first compound 0.3162 µM,0.404
same,relative viability,Tipifarnib + Vorinostat; first compound 1 µM,0.292
same,relative viability,Tipifarnib + Alpelisib; first compound 0.01 µM,0.811
same,relative viability,Tipifarnib + Alpelisib; first compound 0.03162 µM,0.691
same,relative viability,Tipifarnib + Alpelisib; first compound 0.1 µM,0.565
same,relative viability,Tipifarnib + Alpelisib; first compound 0.3162 µM,0.453
same,relative viability,Tipifarnib + Alpelisib; first compound 1 µM,0.396
same,relative viability,Tipifarnib + Navitoclax; first compound 0.01 µM,0.409
same,relative viability,Tipifarnib + Navitoclax; first compound 0.03162 µM,0.481
same,relative viability,Tipifarnib + Navitoclax; first compound 0.1 µM,0.441
same,relative viability,Tipifarnib + Navitoclax; first compound 0.3162 µM,0.373
same,relative viability,Tipifarnib + Navitoclax; first compound 1 µM,0.353
same,relative viability,Tipifarnib + Linsitinib; first compound 0.01 µM,0.983
same,relative viability,Tipifarnib + Linsitinib; first compound 0.03162 µM,0.577
same,relative viability,Tipifarnib + Linsitinib; first compound 0.1 µM,0.737
same,relative viability,Tipifarnib + Linsitinib; first compound 0.3162 µM,0.751
same,relative viability,Tipifarnib + Linsitinib; first compound 1 µM,0.576
NCI-H1395,relative viability,Tipifarnib + Vorinostat; first compound 0.01 µM,0.673
same,relative viability,Tipifarnib + Vorinostat; first compound 0.03162 µM,0.53
same,relative viability,Tipifarnib + Vorinostat; first compound 0.1 µM,0.603
same,relative viability,Tipifarnib + Vorinostat; first compound 0.3162 µM,0.523
same,relative viability,Tipifarnib + Vorinostat; first compound 1 µM,0.393
same,relative viability,Tipifarnib + Alpelisib; first compound 0.01 µM,0.92
same,relative viability,Tipifarnib + Alpelisib; first compound 0.03162 µM,1.03
same,relative viability,Tipifarnib + Alpelisib; first compound 0.1 µM,0.894
same,relative viability,Tipifarnib + Alpelisib; first compound 0.3162 µM,0.693
same,relative viability,Tipifarnib + Alpelisib; first compound 1 µM,0.6
same,relative viability,Tipifarnib + Navitoclax; first compound 0.01 µM,1.17
same,relative viability,Tipifarnib + Navitoclax; first compound 0.03162 µM,0.936
same,relative viability,Tipifarnib + Navitoclax; first compound 0.1 µM,0.978
same,relative viability,Tipifarnib + Navitoclax; first compound 0.3162 µM,0.835
same,relative viability,Tipifarnib + Navitoclax; first compound 1 µM,0.799
same,relative viability,Tipifarnib + Linsitinib; first compound 0.01 µM,1.43
same,relative viability,Tipifarnib + Linsitinib; first compound 0.03162 µM,1.14
same,relative viability,Tipifarnib + Linsitinib; first compound 0.1 µM,0.888
same,relative viability,Tipifarnib + Linsitinib; first compound 0.3162 µM,0.869
same,relative viability,Tipifarnib + Linsitinib; first compound 1 µM,0.783
HCC-827,relative viability,Tipifarnib + Vorinostat; first compound 0.01 µM,0.926
same,relative viability,Tipifarnib + Vorinostat; first compound 0.03162 µM,0.674
same,relative viability,Tipifarnib + Vorinostat; first compound 0.1 µM,0.69
same,relative viability,Tipifarnib + Vorinostat; first compound 0.3162 µM,0.485
same,relative viability,Tipifarnib + Vorinostat; first compound 1 µM,0.294
same,relative viability,Tipifarnib + Alpelisib; first compound 0.01 µM,1.04
same,relative viability,Tipifarnib + Alpelisib; first compound 0.03162 µM,1.03
same,relative viability,Tipifarnib + Alpelisib; first compound 0.1 µM,0.767
same,relative viability,Tipifarnib + Alpelisib; first compound 0.3162 µM,0.626
same,relative viability,Tipifarnib + Alpelisib; first compound 1 µM,0.667
same,relative viability,Tipifarnib + Navitoclax; first compound 0.01 µM,0.941
same,relative viability,Tipifarnib + Navitoclax; first compound 0.03162 µM,0.95
same,relative viability,Tipifarnib + Navitoclax; first compound 0.1 µM,0.793
same,relative viability,Tipifarnib + Navitoclax; first compound 0.3162 µM,0.666
same,relative viability,Tipifarnib + Navitoclax; first compound 1 µM,0.66
same,relative viability,Tipifarnib + Linsitinib; first compound 0.01 µM,0.828
same,relative viability,Tipifarnib + Linsitinib; first compound 0.03162 µM,0.918
same,relative viability,Tipifarnib + Linsitinib; first compound 0.1 µM,0.805
same,relative viability,Tipifarnib + Linsitinib; first compound 0.3162 µM,0.639
same,relative viability,Tipifarnib + Linsitinib; first compound 1 µM,0.6
NCI-H2228,relative viability,Tipifarnib + Vorinostat; first compound 0.01 µM,0.398
same,relative viability,Tipifarnib + Vorinostat; first compound 0.03162 µM,0.453
same,relative viability,Tipifarnib + Vorinostat; first compound 0.1 µM,0.493
same,relative viability,Tipifarnib + Vorinostat; first compound 0.3162 µM,0.314
same,relative viability,Tipifarnib + Vorinostat; first compound 1 µM,0.3
same,relative viability,Tipifarnib + Alpelisib; first compound 0.01 µM,0.997
same,relative viability,Tipifarnib + Alpelisib; first compound 0.03162 µM,0.475
same,relative viability,Tipifarnib + Alpelisib; first compound 0.1 µM,0.473
same,relative viability,Tipifarnib + Alpelisib; first compound 0.3162 µM,0.537
same,relative viability,Tipifarnib + Alpelisib; first compound 1 µM,0.371
same,relative viability,Tipifarnib + Navitoclax; first compound 0.01 µM,0.878
same,relative viability,Tipifarnib + Navitoclax; first compound 0.03162 µM,0.71
same,relative viability,Tipifarnib + Navitoclax; first compound 0.1 µM,1.06
same,relative viability,Tipifarnib + Navitoclax; first compound 0.3162 µM,0.735
same,relative viability,Tipifarnib + Navitoclax; first compound 1 µM,0.527
same,relative viability,Tipifarnib + Linsitinib; first compound 0.01 µM,0.771
same,relative viability,Tipifarnib + Linsitinib; first compound 0.03162 µM,0.416
same,relative viability,Tipifarnib + Linsitinib; first compound 0.1 µM,0.611
same,relative viability,Tipifarnib + Linsitinib; first compound 0.3162 µM,0.382
same,relative viability,Tipifarnib + Linsitinib; first compound 1 µM,0.494
EMC-BAC-2,relative viability,Tipifarnib + Vorinostat; first compound 0.01 µM,0.355
same,relative viability,Tipifarnib + Vorinostat; first compound 0.03162 µM,0.386
same,relative viability,Tipifarnib + Vorinostat; first compound 0.1 µM,0.233
same,relative viability,Tipifarnib + Vorinostat; first compound 0.3162 µM,0.338
same,relative viability,Tipifarnib + Vorinostat; first compound 1 µM,0.191
same,relative viability,Tipifarnib + Alpelisib; first compound 0.01 µM,0.741
same,relative viability,Tipifarnib + Alpelisib; first compound 0.03162 µM,0.665
same,relative viability,Tipifarnib + Alpelisib; first compound 0.1 µM,0.684
same,relative viability,Tipifarnib + Alpelisib; first compound 0.3162 µM,0.651
same,relative viability,Tipifarnib + Alpelisib; first compound 1 µM,0.566
same,relative viability,Tipifarnib + Navitoclax; first compound 0.01 µM,1.2
same,relative viability,Tipifarnib + Navitoclax; first compound 0.03162 µM,1.12
same,relative viability,Tipifarnib + Navitoclax; first compound 0.1 µM,1.06
same,relative viability,Tipifarnib + Navitoclax; first compound 0.3162 µM,0.993
same,relative viability,Tipifarnib + Navitoclax; first compound 1 µM,0.816
same,relative viability,Tipifarnib + Linsitinib; first compound 0.01 µM,0.855
same,relative viability,Tipifarnib + Linsitinib; first compound 0.03162 µM,0.798
same,relative viability,Tipifarnib + Linsitinib; first compound 0.1 µM,0.689
same,relative viability,Tipifarnib + Linsitinib; first compound 0.3162 µM,0.706
same,relative viability,Tipifarnib + Linsitinib; first compound 1 µM,0.636
NCI-H23,relative viability,Tipifarnib + Vorinostat; first compound 0.01 µM,0.543
same,relative viability,Tipifarnib + Vorinostat; first compound 0.03162 µM,0.31
same,relative viability,Tipifarnib + Vorinostat; first compound 0.1 µM,0.299
same,relative viability,Tipifarnib + Vorinostat; first compound 0.3162 µM,0.205
same,relative viability,Tipifarnib + Vorinostat; first compound 1 µM,0.167
same,relative viability,Tipifarnib + Alpelisib; first compound 0.01 µM,0.717
same,relative viability,Tipifarnib + Alpelisib; first compound 0.03162 µM,0.791
same,relative viability,Tipifarnib + Alpelisib; first compound 0.1 µM,0.517
same,relative viability,Tipifarnib + Alpelisib; first compound 0.3162 µM,0.454
same,relative viability,Tipifarnib + Alpelisib; first compound 1 µM,0.372
same,relative viability,Tipifarnib + Navitoclax; first compound 0.01 µM,1.11
same,relative viability,Tipifarnib + Navitoclax; first compound 0.03162 µM,0.883
same,relative viability,Tipifarnib + Navitoclax; first compound 0.1 µM,0.657
same,relative viability,Tipifarnib + Navitoclax; first compound 0.3162 µM,0.562
same,relative viability,Tipifarnib + Navitoclax; first compound 1 µM,0.406
same,relative viability,Tipifarnib + Linsitinib; first compound 0.01 µM,0.747
same,relative viability,Tipifarnib + Linsitinib; first compound 0.03162 µM,0.573
same,relative viability,Tipifarnib + Linsitinib; first compound 0.1 µM,0.44
same,relative viability,Tipifarnib + Linsitinib; first compound 0.3162 µM,0.331
same,relative viability,Tipifarnib + Linsitinib; first compound 1 µM,0.39
RERF-LC-KJ,relative viability,Tipifarnib + Vorinostat; first compound 0.01 µM,0.652
same,relative viability,Tipifarnib + Vorinostat; first compound 0.03162 µM,0.652
same,relative viability,Tipifarnib + Vorinostat; first compound 0.1 µM,0.544
same,relative viability,Tipifarnib + Vorinostat; first compound 0.3162 µM,0.324
same,relative viability,Tipifarnib + Vorinostat; first compound 1 µM,0.224
same,relative viability,Tipifarnib + Alpelisib; first compound 0.01 µM,0.955
same,relative viability,Tipifarnib + Alpelisib; first compound 0.03162 µM,0.919
same,relative viability,Tipifarnib + Alpelisib; first compound 0.1 µM,0.592
same,relative viability,Tipifarnib + Alpelisib; first compound 0.3162 µM,0.631
same,relative viability,Tipifarnib + Alpelisib; first compound 1 µM,0.55
same,relative viability,Tipifarnib + Navitoclax; first compound 0.01 µM,1.14
same,relative viability,Tipifarnib + Navitoclax; first compound 0.03162 µM,0.931
same,relative viability,Tipifarnib + Navitoclax; first compound 0.1 µM,0.61
same,relative viability,Tipifarnib + Navitoclax; first compound 0.3162 µM,0.467
same,relative viability,Tipifarnib + Navitoclax; first compound 1 µM,0.46
same,relative viability,Tipifarnib + Linsitinib; first compound 0.01 µM,0.918
same,relative viability,Tipifarnib + Linsitinib; first compound 0.03162 µM,0.909
same,relative viability,Tipifarnib + Linsitinib; first compound 0.1 µM,0.874
same,relative viability,Tipifarnib + Linsitinib; first compound 0.3162 µM,0.629
same,relative viability,Tipifarnib + Linsitinib; first compound 1 µM,0.651
